The test system of test [1] is primary fibroblasts from confirmed cases of IPF (fibroblastic foci). As to the kind of experiment: Collagen cross-link formation in in vitro fibroblastic foci model of IPF. The note with it: TGF-β1 stimulated foci, six weeks culture with inhibitor. The test is classed as cell-based, human. An excerpt: Reduction of Collagen Cross-Link Formation in an in vitro Fibroblastic Foci Model of IPF
The lung tissue of patients with idiopathic pulmonary fibrosis (IPF) is characterised by dense collections of myofibroblasts and extracellular matrix (ECM) termed ‘fibroblastic foci’. Using a novel in vitro model of fibroblastic foci (Jones et al., AJRCCM 191; 2015:A4912) the formation of lysyl oxidase (LOX) mediated collagen cross-links and the effects of the nonselective LOX inhibitor β-aminopropionitrile (BAPN) as well lysyl oxidase like-2 (LOXL2)-selective inhibitors were investigated.
Cultures of primary fibroblasts were grown out from clinical diagnostic biopsies of fibrotic lung and stored in liquid nitrogen. […]
To quantify collagen cross-links (Robins Biochem Soc Trans 2007; 35(5): 849-852; Saito et al Anal. Biochem. 1997; 253: 26-32; Sims, Avery & Bailey Methods in Molecular Biology 2000; vol 139: 11-26), cultures were treated with potassium borohydride to stabilise the reducible immature cross-links, and hydrolysed in 6N HCl at 100° C. for 16 hr. Total collagen content was assessed by hydroxyproline assay. Immature cross-links were assessed by LC/MS/MS and mature pyridinoline cross-links by ELISA. Cross-link data is expressed as moles of cross-link per mole collagen. […]

A further test addresses Bovine LOX (Bos taurus (Bovine), UniProt P33072). As to the kind of experiment: LOX inhibition, peroxidase-coupled Amplex Red amine oxidase assay. The test is classed as biochemical. The conditions noted are these: 30 min preincubation at 37° C., putrescine substrate. The gist of the method: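 Bovine LOX in 1.2 M urea, 50 mM sodium borate pH 8.2 […]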
The target of another test is Human LOXL2 (Homo sapiens (Human), UniProt Q9Y4K0). Kind of test: LOXL2 inhibition, peroxidase-coupled Amplex Red amine oxidase assay. The test is classed as biochemical. The conditions noted are these: 30 min preincubation at 37° C., putrescine substrate. The gist of the method: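 Enzyme preincubated 30 min at 37 °C with compound (11-point curve) in 1.2 M urea, 50 mM borate pH 8.2 plus 1 μM mofegiline and 0.5 mM pargyline; putrescine at twice KM (10 mM for LOXL2), Amplex Red and HRP added. Fluorescence (565/590 nm) read every 2.5 min for 30 min; IC50 from kinetic slopes.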

Test [2] deals with CCl4 induced liver fibrosis. As to the kind of experiment: CCl4 induced liver fibrosis model. The test is classed as in vivo, rat. The conditions noted are these: 0.1-100 mg/Kg. The protocol:
Inhibition of CCl4 Induced Liver Fibrosis
An analysis of the use of LOXL2 inhibitors to treat inflammatory/fibrotic diseases is performed through the use of a CCl4 induced liver fibrosis model. Liver injury is frequently followed by complete parenchymal regeneration due to regenerative potency of hepatocytes. Continuous liver injury due to the administration of CCl4 leads to extracellular matrix accumulation, accompanied by recurrent hepatocyte necrosis, inflammation, and regenerative processes, causing liver fibrosis and consequently liver cirrhosis (see Natsume, M, et al., Attenuated liver fibrosis and depressed serum albumin levels in carbon tetrachloride-treated IL-6-deficient mice. J. Leukoc. Biol., 1999, 66, 601-608 also See Yao, Q, Y, et al. Inhibition by curcumin of multiple sites of the transforming growth factor-beta1 signalling pathway ameliorates the progression of liver fibrosis induced by carbon tetrachloride in rats. BMC Complement Altern Med. 2012 Sep. 16; 12(1):156.)
Rats are administered orally with CCl4 at a concentration of 0.25 μL/g in olive oil, 3 times per week for 6 weeks. Compound 22 is given 0.1-100 mg/Kg throughout the period of the experimental procedure or only 3 weeks after CCl4 administration and then throughout the entire study. […]

Test [3] concerns the target Human recombinant SSAO/VAP-1 (Homo sapiens (Human), UniProt Q16853). Kind of test: Human recombinant SSAO/VAP-1 amine oxidase inhibition. The test is classed as biochemical. The conditions noted are these: 30 min preincubation at 37° C., 600 μM benzylamine. Put shortly: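 Purified SSAO/VAP-1 (residues 34-763, expressed in CHO Lec 8 cells; 0.25 μg/mL) preincubated 30 min at 37° C with compound in 0.1 M sodium phosphate pH 7.4. Reaction mix of 600 μM benzylamine, 120 μM Amplex Red and 1.5 U/mL HRP added; fluorescence (ex 565/em 590 nm) read every 2.5 min for 30 min; IC50 from kinetic slopes over 4-11 point curves.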

The target of the next test is Recombinant human MAO-B (Homo sapiens (Human), UniProt P27338). Kind of test: Human recombinant MAO-B inhibition. The test is classed as biochemical. The conditions noted are these: benzylamine 100 μM. The gist of the method:
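Recombinant human MAO-B (0.06 mg/mL) was the enzyme source, with benzylamine substrate at 100 μM. Otherwise run as for the human SSAO/VAP-1 assay.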

From patent US10717734B2, “Indole and azaindole haloallylamine derivative inhibitors of lysyl oxidases and uses thereof” (PHARMAXIS LTD., priority 2016, dated 2020) come the findings set out here.

SMILES strings stand for the structures. Where a name gives a salt, the structure may show the parent alone.

Sequence of Human LOXL2 (Q9Y4K0 26-774): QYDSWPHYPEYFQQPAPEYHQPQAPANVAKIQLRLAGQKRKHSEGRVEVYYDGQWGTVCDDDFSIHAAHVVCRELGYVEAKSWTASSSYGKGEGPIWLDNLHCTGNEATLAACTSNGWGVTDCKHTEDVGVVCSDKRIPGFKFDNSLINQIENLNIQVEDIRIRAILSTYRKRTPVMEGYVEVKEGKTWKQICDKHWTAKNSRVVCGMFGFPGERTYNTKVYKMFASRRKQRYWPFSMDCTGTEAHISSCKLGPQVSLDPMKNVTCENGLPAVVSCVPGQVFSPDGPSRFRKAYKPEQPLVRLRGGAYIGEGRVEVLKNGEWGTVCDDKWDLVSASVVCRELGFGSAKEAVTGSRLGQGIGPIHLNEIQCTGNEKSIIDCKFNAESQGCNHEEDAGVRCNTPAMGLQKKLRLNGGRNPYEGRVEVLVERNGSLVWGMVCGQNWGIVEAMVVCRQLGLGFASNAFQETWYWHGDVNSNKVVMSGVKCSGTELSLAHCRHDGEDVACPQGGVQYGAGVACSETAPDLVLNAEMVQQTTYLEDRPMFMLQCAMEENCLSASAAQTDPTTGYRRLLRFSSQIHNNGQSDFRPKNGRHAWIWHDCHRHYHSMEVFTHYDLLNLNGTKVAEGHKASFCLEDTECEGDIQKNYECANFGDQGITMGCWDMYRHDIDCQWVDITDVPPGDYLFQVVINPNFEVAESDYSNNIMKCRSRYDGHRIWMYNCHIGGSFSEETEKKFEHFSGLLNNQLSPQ
Sequence of Human recombinant SSAO/VAP-1 (Q16853 34-763): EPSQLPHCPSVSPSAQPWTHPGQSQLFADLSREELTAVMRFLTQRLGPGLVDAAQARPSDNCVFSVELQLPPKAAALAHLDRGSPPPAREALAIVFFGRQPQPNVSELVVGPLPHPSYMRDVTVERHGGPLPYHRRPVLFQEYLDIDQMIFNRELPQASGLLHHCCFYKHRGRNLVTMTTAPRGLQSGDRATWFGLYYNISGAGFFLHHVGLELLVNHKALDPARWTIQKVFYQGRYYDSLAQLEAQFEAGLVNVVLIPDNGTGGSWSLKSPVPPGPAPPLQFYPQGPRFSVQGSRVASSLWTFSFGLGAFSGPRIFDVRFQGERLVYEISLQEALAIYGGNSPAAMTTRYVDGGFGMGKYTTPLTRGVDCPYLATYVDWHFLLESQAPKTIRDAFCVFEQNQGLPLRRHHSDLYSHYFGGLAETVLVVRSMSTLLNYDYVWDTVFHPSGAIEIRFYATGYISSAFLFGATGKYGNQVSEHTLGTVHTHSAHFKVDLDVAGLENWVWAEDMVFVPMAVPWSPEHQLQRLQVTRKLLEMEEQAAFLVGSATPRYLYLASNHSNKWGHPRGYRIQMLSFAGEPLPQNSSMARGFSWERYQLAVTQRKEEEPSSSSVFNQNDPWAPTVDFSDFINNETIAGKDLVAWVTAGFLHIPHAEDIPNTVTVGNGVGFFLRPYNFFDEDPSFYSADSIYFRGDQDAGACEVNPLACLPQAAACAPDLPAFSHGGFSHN
Sequence of Recombinant human MAO-B (P27338 whole entry): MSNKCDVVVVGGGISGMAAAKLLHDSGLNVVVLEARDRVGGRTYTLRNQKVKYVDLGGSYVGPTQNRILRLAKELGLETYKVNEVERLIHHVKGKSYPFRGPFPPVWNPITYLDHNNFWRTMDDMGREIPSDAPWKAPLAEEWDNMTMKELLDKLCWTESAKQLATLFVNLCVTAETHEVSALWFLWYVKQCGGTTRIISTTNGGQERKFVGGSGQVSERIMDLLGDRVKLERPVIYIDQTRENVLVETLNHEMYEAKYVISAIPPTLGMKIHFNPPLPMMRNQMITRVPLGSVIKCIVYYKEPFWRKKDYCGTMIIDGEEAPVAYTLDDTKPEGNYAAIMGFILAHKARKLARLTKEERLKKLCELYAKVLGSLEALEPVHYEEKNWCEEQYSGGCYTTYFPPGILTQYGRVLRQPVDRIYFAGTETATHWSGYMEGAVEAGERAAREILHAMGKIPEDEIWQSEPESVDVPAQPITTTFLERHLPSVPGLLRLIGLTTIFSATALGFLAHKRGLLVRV
Sequence of Bovine LOX (P33072 170-418): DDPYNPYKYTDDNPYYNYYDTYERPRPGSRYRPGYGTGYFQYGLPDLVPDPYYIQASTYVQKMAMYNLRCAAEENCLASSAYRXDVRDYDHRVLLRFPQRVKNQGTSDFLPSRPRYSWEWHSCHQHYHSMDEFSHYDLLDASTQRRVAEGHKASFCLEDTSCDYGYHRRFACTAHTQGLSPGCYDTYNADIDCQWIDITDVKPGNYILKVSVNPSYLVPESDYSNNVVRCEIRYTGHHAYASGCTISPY

`N#CCCN` [BAPN, β-aminopropionitrile]: the collagen cross-link formation entry in test [1] was “reduced cross-link formation in a concentration dependent manner”.
The term IC50 denotes the point on the concentration scale where inhibition reaches its midpoint. With `CC(C)c1c(Cc2ccc(S(C)(=O)=O)nc2)c2ncccc2n1C/C(F)=C/CN` [Compound 22, trihydrochloride], the IC50 on Bovine LOX is above 300 nM; on Human LOXL2, below 300 nM; in test [3], above 3000 nM; on Recombinant human MAO-B it was above 3000 nM. Moreover, the “inhibition of liver collagen by hydroxyproline analysis” value in test [2] (CCl4 model, statistically significant) is above 30%. Moreover, the “reduction of liver fibrosis by sirius red staining with quantification” value in test [2] (rats, oral CCl4 3 times per week for 6 weeks, versus vehicle-treated group) was “up to 50%”.
With `Cc1c(Cc2ccc(S(C)(=O)=O)c(Cl)c2)c2ncccc2n1C/C(F)=C/CN` [Compound 35, (Z)-4-(3-(3-chloro-4-(methylsulfonyl)benzyl)-2-methyl-1H-pyrrolo[3,2-b]pyridin-1-yl)-3-fluorobut-2-en-1-amine dihydrochloride], the IC50 against Bovine LOX was above 300 nM; on Human LOXL2, below 300 nM; in test [3] it was above 3000 nM; on Recombinant human MAO-B it was above 3000 nM.
Take `Cc1cc2c(cn1)c(Cc1ccc(S(C)(=O)=O)cc1)c(C)n2C/C(F)=C/CN` [Compound 36, (Z)-4-(2,6-dimethyl-3-(4-(methylsulfonyl)benzyl)-1H-pyrrolo[3,2-c]pyridin-1-yl)-3-fluorobut-2-en-1-amine dihydrochloride]: the IC50 against Bovine LOX is above 300 nM; against Human LOXL2, below 300 nM; in test [3], above 3000 nM; at Recombinant human MAO-B, above 3000 nM.
On to `Cc1cc2c(nn1)c(Cc1ccc(S(=O)(=O)N(C)C)cc1)c(C)n2C/C(F)=C/CN` [Compound 37, (Z)-4-((5-(4-amino-2-fluorobut-2-en-1-yl)-3,6-dimethyl-5H-pyrrolo[3,2-c]pyridazin-7-yl)methyl)-N,N-dimethylbenzenesulfonamide dihydrochloride], for which the IC50 is above 300 nM on Bovine LOX, below 300 nM on Human LOXL2, above 3000 nM in test [3] and above 3000 nM on Recombinant human MAO-B.
`Cc1ncc2c(n1)c(Cc1ccc(S(C)(=O)=O)cc1)c(C)n2C/C(F)=C/CN` [Compound 38, (Z)-4-(2,6-dimethyl-7-(4-(methylsulfonyl)benzyl)-5H-pyrrolo[3,2-d]pyrimidin-5-yl)-3-fluorobut-2-en-1-amine dihydrochloride]: the IC50 at Bovine LOX is above 300 nM; on Human LOXL2, below 300 nM; in test [3] it was above 3000 nM; on Recombinant human MAO-B it was above 3000 nM.
On to `Cc1ncc2c(n1)c(Cc1ccc(S(=O)(=O)N(C)C)cc1)c(C)n2C/C(F)=C/CN` [Compound 39, (Z)-4-((5-(4-amino-2-fluorobut-2-en-1-yl)-2,6-dimethyl-5H-pyrrolo[3,2-d]pyrimidin-7-yl)methyl)-N,N-dimethylbenzenesulfonamide dihydrochloride], for which the IC50 is above 300 nM against Bovine LOX, below 300 nM against Human LOXL2, above 3000 nM in test [3] and above 3000 nM at Recombinant human MAO-B.
Regarding `Cc1ccc2c(n1)c(CCc1ccc(S(C)(=O)=O)cc1)c(C)n2C/C(F)=C/CN` [Compound 40, (Z)-4-(2,5-dimethyl-3-(4-(methylsulfonyl)phenethyl)-1H-pyrrolo[3,2-b]pyridin-1-yl)-3-fluorobut-2-en-1-amine dihydrochloride], the IC50 was above 300 nM at Bovine LOX, below 300 nM against Human LOXL2, above 3000 nM in test [3] and above 3000 nM on Recombinant human MAO-B.
For the molecule `CC(C)c1c(Cc2ccc(S(=O)(=O)C(C)C)nc2)c2ncccc2n1C/C(F)=C/CN` [Compound 41, (Z)-3-fluoro-4-(2-isopropyl-3-((6-(isopropylsulfonyl)pyridin-3-yl)methyl)-1H-pyrrolo[3,2-b]pyridin-1-yl)but-2-en-1-amine hydrochloride], the IC50 against Bovine LOX is above 300 nM; on Human LOXL2, below 300 nM; in test [3] it was above 3000 nM; on Recombinant human MAO-B, above 3000 nM.
On to `CC(C)c1c(C(O)c2ccc(S(C)(=O)=O)nc2)c2ncccc2n1C/C(F)=C/CN` (stereo not drawn) [Compound 42, (Z)-(1-(4-amino-2-fluorobut-2-en-1-yl)-2-isopropyl-1H-pyrrolo[3,2-b]pyridin-3-yl)(6-(methylsulfonyl)pyridin-3-yl)methanol dihydrochloride], for which the IC50 against Bovine LOX is above 300 nM; against Human LOXL2, below 300 nM; in test [3], above 3000 nM; on Recombinant human MAO-B, above 3000 nM.
